The values that follow come from the supplement of paper PMC10307832.

Holding throughout (experiment): relative viability (nuclei count vs DMSO), 5 days (fraction); higher = more cells survive
Compound in experiment [1]: O=C(NCCCNc1nc(Nc2cccc(NC(=O)N3CCCC3)c2)ncc1I)c1cccs1 [BX 795] + CC(=O)Nc1cccc(-n2c(=O)n(C3CC3)c(=O)c3c(Nc4ccc(I)cc4F)n(C)c(=O)c(C)c32)c1 [Trametinib] (partner 0.02 µM)
The method in brief:
(§1)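 Medians of duplicate plates are given as relative viability. That measure is the nuclei count in treated wells divided by the count in vehicle wells. Counts were taken on 4× images of lung cancer cell lines in 1536-well plates, 5 days after pin-tool dosing the day after seeding with one drug alone or a fixed anchor-drug dose plus five library-drug doses (not always all listed) in √10 steps.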

Compound in experiment [2]: O=C(NCCCNc1nc(Nc2cccc(NC(=O)N3CCCC3)c2)ncc1I)c1cccs1 [BX 795] + CC(C)C[C@H](NC(=O)[C@H](Cc1ccccc1)NC(=O)c1cnccn1)B(O)O [Bortezomib] (partner 0.002 µM)
In a few lines: as §1

Compound in experiment [3]: O=C(NCCCNc1nc(Nc2cccc(NC(=O)N3CCCC3)c2)ncc1I)c1cccs1 [BX 795] + COc1cc2c(Oc3ccc(NC(=O)C4(C(=O)Nc5ccc(F)cc5)CC4)cc3F)ccnc2cc1OCCCN1CCOCC1 [Foretinib] (partner 0.25 µM)
The method in brief:
as §1

Compound in experiment [4]: O=C(NCCCNc1nc(Nc2cccc(NC(=O)N3CCCC3)c2)ncc1I)c1cccs1 [BX 795] + Cc1cc(Nc2cc(N3CCN(C)CC3)nc(Sc3ccc(NC(=O)C4CC4)cc3)n2)n[nH]1 [Tozasertib] (partner 0.1 µM)
In a few lines: as §1

Compound in experiment [5]: O=C(NCCCNc1nc(Nc2cccc(NC(=O)N3CCCC3)c2)ncc1I)c1cccs1 [BX 795] + Nc1nc2[nH]cc(CCc3ccc(C(=O)N[C@@H](CCC(=O)O)C(=O)O)cc3)c2c(=O)[nH]1 [Pemetrexed] (partner 0.2 µM)
In a few lines:
as §1

On to NCI-H23, for which the relative viability came to 0.341 in experiment [1] (first compound 0.04 µM); 0.338 in experiment [1] (first compound 0.1265 µM); 0.368 in experiment [1] (first compound 0.4 µM); 0.312 in experiment [1] (first compound 1.265 µM); 1.05 in experiment [2] (first compound 0.04 µM); 1.31 in experiment [2] (first compound 0.1265 µM). Further, the relative viability in experiment [2] (first compound 0.4 µM) stood at 0.987; in experiment [2] (first compound 1.265 µM), 1.26; in experiment [3] (first compound 0.04 µM), 0.943; in experiment [3] (first compound 0.1265 µM), 0.872; in experiment [3] (first compound 0.4 µM) it was 1; in experiment [3] (first compound 1.265 µM) it was 0.472. Moreover, the relative viability in experiment [4] (first compound 0.04 µM) was found to be 0.327; in experiment [4] (first compound 0.1265 µM), 0.639; in experiment [4] (first compound 0.4 µM), 0.314; in experiment [4] (first compound 1.265 µM), 0.234; in experiment [5] (first compound 0.04 µM) it was 0.559; in experiment [5] (first compound 0.1265 µM), 0.61. The relative viability in experiment [5] (first compound 0.4 µM) turned out to be 0.418; in experiment [5] (first compound 1.265 µM) it was 0.502.
On to EKVX, for which the relative viability in experiment [1] (first compound 0.04 µM) amounted to 0.358; in experiment [1] (first compound 0.1265 µM), 0.298; in experiment [1] (first compound 0.4 µM), 0.382; in experiment [1] (first compound 1.265 µM) it was 0.351; in experiment [2] (first compound 0.04 µM) it was 1.15; in experiment [2] (first compound 0.1265 µM), 1.09. The relative viability stood at 0.99 in experiment [2] (first compound 0.4 µM); 0.886 in experiment [2] (first compound 1.265 µM); 0.496 in experiment [3] (first compound 0.04 µM); 0.893 in experiment [3] (first compound 0.1265 µM); 0.516 in experiment [3] (first compound 0.4 µM); 0.726 in experiment [3] (first compound 1.265 µM). Moreover, the relative viability was 0.38 in experiment [4] (first compound 0.04 µM); 0.471 in experiment [4] (first compound 0.1265 µM); 0.358 in experiment [4] (first compound 0.4 µM); 0.331 in experiment [4] (first compound 1.265 µM); 0.309 in experiment [5] (first compound 0.04 µM); 0.379 in experiment [5] (first compound 0.1265 µM). Further, the figures for the relative viability in experiment [5] (first compound 0.4 µM) and in experiment [5] (first compound 1.265 µM) were 0.228 and 0.386, respectively.
As for 201T, the relative viability in experiment [1] (first compound 0.04 µM) came to 0.763; in experiment [1] (first compound 0.1265 µM), 0.749; in experiment [1] (first compound 0.4 µM), 0.76; in experiment [1] (first compound 1.265 µM) it was 0.766; in experiment [2] (first compound 0.04 µM), 1.12; in experiment [2] (first compound 0.1265 µM), 1.08. For the same cell line, the relative viability in experiment [2] (first compound 0.4 µM) stood at 1.18; in experiment [2] (first compound 1.265 µM), 1.11; in experiment [3] (first compound 0.04 µM) it was 1.2; in experiment [3] (first compound 0.1265 µM), 1.13; in experiment [3] (first compound 0.4 µM), 0.952; in experiment [3] (first compound 1.265 µM), 1.21. Also, the relative viability worked out at 1.06 in experiment [4] (first compound 0.04 µM); 0.918 in experiment [4] (first compound 0.1265 µM); 1.11 in experiment [4] (first compound 0.4 µM); 0.963 in experiment [4] (first compound 1.265 µM); 0.302 in experiment [5] (first compound 0.04 µM); 0.305 in experiment [5] (first compound 0.1265 µM). Besides, the relative viability is 0.298 in experiment [5] (first compound 0.4 µM) and 0.304 in experiment [5] (first compound 1.265 µM).
Consider NCI-H1993, for which the relative viability in experiment [1] (first compound 0.04 µM) came out at 0.554; in experiment [1] (first compound 0.1265 µM), 0.439; in experiment [1] (first compound 0.4 µM), 0.504; in experiment [1] (first compound 1.265 µM), 0.561; in experiment [2] (first compound 0.04 µM), 1.15; in experiment [2] (first compound 0.1265 µM), 1.26. Besides, the relative viability came out at 1.05 in experiment [2] (first compound 0.4 µM); 1.02 in experiment [2] (first compound 1.265 µM); 0.804 in experiment [3] (first compound 0.04 µM); 0.961 in experiment [3] (first compound 0.1265 µM); 0.73 in experiment [3] (first compound 0.4 µM); 0.665 in experiment [3] (first compound 1.265 µM). Also, the relative viability came to 0.582 in experiment [4] (first compound 0.04 µM); 0.553 in experiment [4] (first compound 0.1265 µM); 0.527 in experiment [4] (first compound 0.4 µM); 0.55 in experiment [4] (first compound 1.265 µM); 0.624 in experiment [5] (first compound 0.04 µM); 0.616 in experiment [5] (first compound 0.1265 µM). Further, the results for the relative viability in experiment [5] (first compound 0.4 µM) and in experiment [5] (first compound 1.265 µM) were 0.623 and 0.585, respectively.
On to NCI-H596, for which the relative viability in experiment [1] (first compound 0.04 µM) came to 0.807; in experiment [1] (first compound 0.1265 µM), 0.757; in experiment [1] (first compound 0.4 µM) it was 0.932; in experiment [1] (first compound 1.265 µM), 0.776; in experiment [2] (first compound 0.04 µM), 0.947; in experiment [2] (first compound 0.1265 µM), 0.875. The relative viability in experiment [2] (first compound 0.4 µM) is 0.999; in experiment [2] (first compound 1.265 µM), 1.08; in experiment [3] (first compound 0.04 µM) it was 0.873; in experiment [3] (first compound 0.1265 µM) it was 0.745; in experiment [3] (first compound 0.4 µM), 1.07; in experiment [3] (first compound 1.265 µM) it was 0.787. For the same cell line, the relative viability in experiment [4] (first compound 0.04 µM) amounted to 0.963; in experiment [4] (first compound 0.1265 µM), 0.906; in experiment [4] (first compound 0.4 µM), 1.03; in experiment [4] (first compound 1.265 µM) it was 0.699; in experiment [5] (first compound 0.04 µM), 0.464; in experiment [5] (first compound 0.1265 µM), 0.476. Besides, the relative viability worked out at 0.456 in experiment [5] (first compound 0.4 µM) and 0.527 in experiment [5] (first compound 1.265 µM).
With LCLC-103H, the relative viability in experiment [1] (first compound 0.04 µM) was 0.578; in experiment [1] (first compound 0.1265 µM), 0.681; in experiment [1] (first compound 0.4 µM), 0.712; in experiment [1] (first compound 1.265 µM) it was 0.651; in experiment [2] (first compound 0.04 µM), 1; in experiment [2] (first compound 0.1265 µM), 1.1. Moreover, the relative viability turned out to be 1.15 in experiment [2] (first compound 0.4 µM); 0.911 in experiment [2] (first compound 1.265 µM); 0.848 in experiment [3] (first compound 0.04 µM); 0.843 in experiment [3] (first compound 0.1265 µM); 0.847 in experiment [3] (first compound 0.4 µM); 0.621 in experiment [3] (first compound 1.265 µM). The relative viability in experiment [4] (first compound 0.04 µM) was found to be 0.476; in experiment [4] (first compound 0.1265 µM), 0.475; in experiment [4] (first compound 0.4 µM), 0.477; in experiment [4] (first compound 1.265 µM), 0.379; in experiment [5] (first compound 0.04 µM), 0.432; in experiment [5] (first compound 0.1265 µM) it was 0.429. In addition, the relative viability in experiment [5] (first compound 0.4 µM) came to 0.407; in experiment [5] (first compound 1.265 µM), 0.452.
As to NCI-H2347, the relative viability came to 0.282 in experiment [1] (first compound 0.04 µM); 0.239 in experiment [1] (first compound 0.1265 µM); 0.29 in experiment [1] (first compound 0.4 µM); 0.275 in experiment [1] (first compound 1.265 µM); 1.19 in experiment [2] (first compound 0.04 µM); 1.05 in experiment [2] (first compound 0.1265 µM). In addition, the relative viability in experiment [2] (first compound 0.4 µM) was found to be 1.23; in experiment [2] (first compound 1.265 µM), 0.934; in experiment [3] (first compound 0.04 µM), 1.03; in experiment [3] (first compound 0.1265 µM), 0.915; in experiment [3] (first compound 0.4 µM), 0.8; in experiment [3] (first compound 1.265 µM) it was 0.773. Also, the relative viability was 0.817 in experiment [4] (first compound 0.04 µM); 0.64 in experiment [4] (first compound 0.1265 µM); 0.603 in experiment [4] (first compound 0.4 µM); 0.441 in experiment [4] (first compound 1.265 µM); 0.424 in experiment [5] (first compound 0.04 µM); 0.375 in experiment [5] (first compound 0.1265 µM). For the same cell line, the relative viability in experiment [5] (first compound 0.4 µM) and in experiment [5] (first compound 1.265 µM) was 0.434 each time.
